Assay results from patent US20250073340A1, “SPIROCYCLIC MDM2 MODULATOR AND USES THEREOF” (Newave Pharmaceutical Inc., priority 2021, published 2025).

Columns and labels:
MDM2 = MDM2 (Homo sapiens (Human), UniProt Q00987); assay: In vitro MDM2 HTRF assay (inhibition of p53-MDM2 interaction); assay type: binding; conditions: GST-MDM2 / biotinylated p53 peptide
Mice PK study = assay type: in vivo; conditions: 25 mg/kg; Oral, 25 mpk, CD-1 mouse, plasma
Method: Biological Example 4: Mice PK Study
The pharmacokinetics of compounds were evaluated in CD-1 mouse via Intravenous and Oral Administration. The IV dose was administered as a slow bolus in the Jugular vein, and oral doses were administered by gavage. The formulation for IV dosing was 5% DMSO in 20% HPBCD in water, and the PO formulation was 2.5% DMSO, 10% EtOH, 20% Cremphor EL, 67.5% D5W. The PK time point for the IV arm was 5, 15, 30 min, 1, 2, 4, 6, 8, 12, 24 hours post dose, and for PO arm was 15, 30 min, 1, 2, 4, 6, 8, 12, 24 hours post dose. Approximately 0.03 mL blood was collected at each time point. Blood of each sample was transferred into plastic micro centrifuge tubes containing EDTA-K2 and collect plasma within 15 min by centrifugation at 4000 g for 5 minutes in a 4° C. centrifuge. Plasma samples were stored in polypropylene tubes. The samples were stored in a freezer at −75±15° C. prior to analysis. Concentrations of compounds in the plasma samples were analyzed using a LC-MS/MS method. […] The following pharmacokinetic parameters were calculated, whenever possible from the plasma concentration versus time data: IV administration: C0, CL, Vd, T1/2, AUCinf, AUClast, MRT, Number of Points for Regression; PO administration: Cmax, Tmax, T1/2, AUCinf, AUClast, F %, Number of Points for Regression. […]

[1] = tested on: BCL-2-dependent acute lymphoblastic leukemia (ALL) cell line RS4;11 overexpressing Bcl-2 G101V; assay: cells; assay type: cell-based; conditions: Homo sapiens, RS4-11; about 72 hours, ATPlite luminescence; read-out: RS4;11-G101V IC50
Procedure, shortened: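 About 1×10^4 cells per well treated with compound for about 72 hours in medium with 5% FBS or 10% normal human serum. Viability from ATP-based luminescence (ATPlite) after lysis; IC50 derived from dose range.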

MDM2, sequence (Q00987 whole entry): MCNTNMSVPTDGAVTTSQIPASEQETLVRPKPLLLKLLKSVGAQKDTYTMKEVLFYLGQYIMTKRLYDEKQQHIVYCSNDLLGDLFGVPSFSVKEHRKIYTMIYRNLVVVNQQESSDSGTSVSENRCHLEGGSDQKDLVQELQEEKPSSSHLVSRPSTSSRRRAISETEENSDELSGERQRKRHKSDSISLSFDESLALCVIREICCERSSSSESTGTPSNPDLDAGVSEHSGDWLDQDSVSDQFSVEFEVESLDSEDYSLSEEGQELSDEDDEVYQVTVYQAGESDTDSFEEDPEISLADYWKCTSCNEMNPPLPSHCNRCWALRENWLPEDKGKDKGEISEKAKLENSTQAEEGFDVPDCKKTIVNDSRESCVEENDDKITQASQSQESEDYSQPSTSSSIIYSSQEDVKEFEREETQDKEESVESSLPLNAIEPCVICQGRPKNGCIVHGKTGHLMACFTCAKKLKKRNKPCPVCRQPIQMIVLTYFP

IC50 (MDM2): 3.38 nM
AUC (Mice PK study): 49400 ng·h/mL
IC50 [1]: 7.71 nM
SMILES: COc1cc(C(=O)N2CCC3(CC2)C[C@@H]3C#Cc2cccc3c2CN([C@H]2CCC(=O)NC2=O)C3=O)ccc1NC(=O)[C@@H]1N[C@@H](CC(C)(C)C)[C@@]2(CNc3cc(Cl)ccc32)[C@H]1c1cccc(Cl)c1F [Example 58, (2′S,3S,4′S,5′R)-6-chloro-4′-(3-chloro-2-fluorophenyl)-2′-(2,2-dimethylpropyl)-N-{4-[(1S)-1-(2-{2-[(3S)-2,6-dioxopiperidin-3-yl]-1-oxo-3H-isoindol-4-yl}ethynyl)-6-azaspiro[2.5]octane-6-carbonyl]-2-methoxyphenyl}-1,2-dihydrospiro[indole-3,3′-pyrrolidine]-5′-carboxamide]
